Measurements taken from PMC7754455 (Journal of Clinical Pharmacology, 2020).

What was measured:
[1] = Blood and plasma binding and permeability PBPK input parameters; details: PBPK model parameter, fixed to observed value
[2] = Simcyp PBPK model parameter
[3] = Clinical DDI study part 2: plasma PK of molibresib alone and with rifampicin; details: for AUC0‐∞ / Cmax / t1/2 / tmax: part 2 n = 14; for AUC0‐∞ / Cmax / t1/2: geometric mean (CVb%); for tmax: median (range)
[4] = Clinical DDI study part 1: plasma PK of molibresib alone and with itraconazole; details: with itraconazole vs alone, dose-normalized
[5] = human urine; ref study BET115521; cited from earlier work
[6] = preclinical findings; cited from earlier work
[7] = Safety and tolerability in the DDI study; details: one subject, part 1, appeared on day 6
[8] = with rifampicin vs alone, part 2

In the case of `COc1ccc2c(c1)C(c1ccc(Cl)cc1)=N[C@@H](CC(N)=O)c1nnc(C)n1-2` [GSK3529246], the “Blood:plasma ratio” value [1] is reported as 0.9, the Fu plasma ([1]; fraction unbound) is reported as 0.2 and the Compound type [2] is reported as “Monoprotic base”. For the same compound, the “Log P” value [2] was 1.6, the pKb [2] was 7.36 and the “increase in Cmax with rifampicin” value ([3]; part 2) was 2 fold. For the same compound, the “AUC0‐∞” value ([3]; molibresib 10 mg alone) was 622 (26) ng·h/mL, the Cmax ([3]; molibresib 10 mg alone) was 49.0 (24) ng/mL and the t1/2 ([3]; molibresib 10 mg alone) was 10.0 (22) h. For the same compound, the tmax ([3]; molibresib 10 mg alone) was 2.0 (1.0‐4.1) h, the “AUC0‐∞” value ([3]; molibresib 20 mg + rifampicin) was 1140 (26) ng·h/mL and the Cmax ([3]; molibresib 20 mg + rifampicin) was 200 (24) ng/mL. For the same compound, the t1/2 ([3]; molibresib 20 mg + rifampicin) was 10.0 (24) h, the tmax ([3]; molibresib 20 mg + rifampicin) was 1.0 (0.53‐1.5) h and the “AUC0‐∞ Geometric Mean Ratio, Dosed Normalized (90%CI)” value [3, 8] was 0.917 (0.850‐0.989). The “Cmax Geometric Mean Ratio, Dosed Normalized (90%CI)” value [3, 8] was 2.04 (1.78‐2.32), the “AUC Observed Geometric Mean Ratio (90%CI)” value ([4]; AUC 0 to infinity) was 0.29 (0.26‐0.32) and the “Cmax Observed Geometric Mean Ratio (90%CI)” value [4] was 0.13 (0.11‐0.14).
In the case of `CCNC(=O)C[C@@H]1N=C(c2ccc(Cl)cc2)c2cc(OC)ccc2-n2c(C)nnc21` [Molibresib], the “urinary excretion of unchanged drug” value [5] is listed as “approximately 9.5 % of the total dose administered” and the “preclinical adverse effects on male reproductive organs” value [6] is listed as “adverse effects on the testes including sperm retention and disorganized spermatogenesis”.
In the case of `CCC(C)n1ncn(-c2ccc(N3CCN(c4ccc(OCC5COC(Cn6cncn6)(c6ccc(Cl)cc6Cl)O5)cc4)CC3)cc2)c1=O` (stereo not drawn) [itraconazole], the “adverse event considered related by the investigator” value [7] is reported as “mild elevations in liver enzymes”.
